Reference: US20110293720A1, “PROGESTIN-CONTAINING DRUG DELIVERY SYSTEM” (BAYER SCHERING PHARMA AKTIENGESELLSCHAFT, priority 2008, published 2011)

Experiment: Particle size distribution (d50/d70/d90, volume distribution, e.g. laser diffraction)
Type: physicochemical
Settings: micronized active ingredient before coating
Excerpt: When used herein, the term “d90 particle size” is intended to mean that the particle size distribution is so that at least 90% of the particles have a particle diameter of less than the specified value, calculated from the volume distribution curve under the presumption of spherical particles. In a similar way, the term “d50 particle size” is intended to mean that the particle size distribution is so that at least 50% of the particles have a particle diameter of less than the specified value, calculated from the volume distribution curve under the presumption of spherical particles.
Therefore, it is important to note that whenever the terms “particle size”, “particle size distribution”, “particle diameter”, “d90”, “d50”, etc., are used herein it should be understood that the specific values or ranges used in connection therewith are always meant to be determined from the volume distribution curve under the presumption of spherical particles. The particle size distribution may be determined by various techniques, e.g. laser diffraction, and will be known to the person skilled in the art. […] The particle size distribution of the particles comprising the progestin and the protective agent, when incorporated in the wafer, may be determined by dissolving the film forming matrix, separation of the protected particles, and drying the protected particles. […]

d50: 2.2 μm | d90: 4.8 μm
SMILES: C[C@]12CCC(=O)C=C1[C@@H]1C[C@@H]1[C@H]1[C@@H]3[C@@H]4C[C@@H]4[C@@]4(CCC(=O)O4)[C@@]3(C)CC[C@@H]12 [drospirenone]
